This note sets out measurements from patent US20170038365A1, “SMALL MOLECULE INHIBITORS OF 8-OXOGUANINE DNA GLYCOSYLASE-1 (OGG1)” (OREGON HEALTH & SCIENCE UNIVERSITY, priority 2015, published 2017).

The term IC50 denotes the point on the concentration scale where inhibition reaches its midpoint.

Data set [1] has as its target T1, OGG1 (Homo sapiens, UniProt O15527).
T1 construct: His tag; made in house; host or cells: bacterial culture (LB media, IPTG induction)
Nature of the data set: fluorescence-based OGG1 activity assay (TAMRA/BHQ2 8-oxo-Gua substrate). In kind it is biochemical. The conditions noted are these: read-out: IC50 (OGG1 inhibition). The procedure: The OGG1 activity assay utilized a 17-mer oligodeoxynucleotide that contained an 8-oxo-Gua positioned 6 deoxynucleotides downstream of a 5′-TAMRA fluorophore and a complementary DNA strand that contained a 3′-Black Hole Quencher 2 (BHQ2) (FIG. 1). […] Therefore, inhibitors of OGG1 activity would be expected to result in a weaker fluorescence signal over time compared to a no inhibitor control.
The fluorescence-based assay outlined in FIG. 2A was performed in black, low volume 384-well plates with a final volume of 10 μL per well. […] Plates were incubated for 30 min at 37° C. and TAMRA fluorescence in each well was measured using the Biotek Synergy 4 platereader (Filters=Ex 528/20, Em 600/40. Mirror=Top 570 nm with polarizer). Background-subtracted fluorescence values were calculated for each well and any compound that had ≧40% decrease in fluorescence compared to the no inhibitor control was identified as a hit. […]
Assays to calculate IC50 values of OGG1, NEIL1, and NTH1 were fundamentally similar to the high-throughput screen except that the step for the addition of drug differed and a lower enzyme concentration was used. […] Plates were incubated at 37° C. for 40 min (OGG1), 5 min (NEIL1), and 10 min (NTH1), followed by the measurement of TAMRA fluorescence. […]

Data set [2] concerns the target T1, OGG1. Nature of the data set: OGG1 AP lyase activity on AP site-containing substrate (gel). Type of data set: biochemical. The note with it: 10 μM compound, compared to no inhibitor control. As for the experimental part: FIG. 5A is a bar graph of OGG1 lyase activity on a substrate containing an AP site. The substrate was incubated without OGG1 (No Enz), with OGG1 (No Inh), or with OGG1+10 μM compound. The top band in each gel corresponds to uncleaved substrate and the bottom band is cleaved product. Mean percent cleavage compared to the no inhibitor control (% Activity) was plotted for three independent experiments. The uncertainties are standard deviations.
(§1) Hydrazides Inhibit the Glycosylase and Lyase Activities of OGG1. To verify the results of the fluorescence-based assay, gel-based assays were performed to detect OGG1-mediated strand cleavage of an 8-oxo-Gua-containing substrate at eight different inhibitor concentrations (FIG. 4). […] There are at least three possibilities that could account for how these molecules inhibit DNA strand cleavage by OGG1. […] This assay used γ-irradiated calf thymus DNA as a substrate and measured the number of free 8-oxo-Gua and FapyGua in solution released by OGG1. […]
(§2) Gel-based assays were performed by combining 4 μL of 2.5×OGG1 (62.5 nM) with 1 μL 10× inhibitor or buffer. […] Samples were analyzed by electrophoresis on a 15% polyacrylamide gel containing 8 M urea and bands were visualized by a FluorChem M imager (Protein Simple). Band intensities were quantified using the Image Studio Lite Software (LI-COR).

The target in data set [3] is T1, OGG1. Nature of the data set: OGG1 glycosylase activity on γ-irradiated calf thymus DNA by GC-MS/MS. Type of data set: biochemical. The note with it: 0.1 μmol inhibitor. The procedure:
FIG. 5B is a bar graph of OGG1 glycosylase activity measured on irradiated calf thymus DNA. The number of excised 8-oxo-Gua per 10^6 DNA bases was measured by GC-MS/MS. Graph plots equal the mean of three independent experiments. The uncertainties are standard deviations.
FIG. 5C is a bar graph of OGG1 glycosylase activity measured on irradiated calf thymus DNA. The number of excised FapyGua per 10^6 DNA bases was measured by GC-MS/MS. Graph plots equal the mean of three independent experiments. The uncertainties are standard deviations.
as §1
The enzymatic activities of OGG1, NEIL1 and NTH1 were measured using gas chromatography/isotope-dilution tandem mass spectrometry (GC-MS/MS) and calf thymus DNA samples γ-irradiated at 20 Gy as described in Jaruga et al 2008 infra and Reddy et al, 2013 infra. […]

Data set [4] concerns the target T1, OGG1. Put plainly: gel-based OGG1 cleavage assay on 8-oxo-Gua-containing substrate. The conditions noted are these: eight inhibitor concentrations 0.008-25 μM. In kind it is biochemical. The procedure:
FIG. 4A is an image and plot showing a gel-based OGG1 activity assay of compound O8. 8-oxo-Gua-containing substrate was incubated without OGG1 (No Enz), with OGG1 (No Inh), or with OGG1+8 different concentrations (25, 8, 2.5, 0.8, 0.25, 0.08, 0.025, 0.008 μM) of inhibitors. The top band in the gel corresponds to uncleaved substrate and the bottom band is cleaved product. The Y-axis on each graph equals the percent substrate cleavage compared to the no inhibitor control (% Activity). Data points equal the mean of three independent experiments. The uncertainties are standard deviations.
Hydrazides Inhibit the Glycosylase and Lyase Activities of OGG1. To verify the results of the fluorescence-based assay, gel-based assays were performed to detect OGG1-mediated strand cleavage of an 8-oxo-Gua-containing substrate at eight different inhibitor concentrations (FIG. 4). […] This assay used γ-irradiated calf thymus DNA as a substrate and measured the number of free 8-oxo-Gua and FapyGua in solution released by OGG1. […]
as §2

Data set [5] has as its target T1, OGG1. Nature of the data set: sodium cyanoborohydride trapping assay of OGG1 and substrate. Type of data set: biochemical. The note with it: 10 μM inhibitor, 1 mM NaBH3CN. The procedure:
FIG. 6B is an image and bar graph of Sodium cyanoborohydride trapping of OGG1 and substrate. OGG1 was incubated with 8-oxo-Gua- (top gel), AP site- (bottom gel) or U-containing (last lane in each gel) substrates with or without 10 μM inhibitor or INH. Reactions were performed in the presence of 1 mM NaBH3CN. Top band in each gel corresponds to OGG1 trapped to substrate and the bottom band is untrapped substrate. Bands were quantified in each gel and the percent trapped compared to the no inhibitor control was plotted for each compound. Graph plots equal the mean of three independent experiments. The uncertainties are standard deviations.
FIG. 11 is an image and plot of a dose response for O8 trapping. […] Bands were quantified in each gel and the percent trapped compared to the no inhibitor control (% Trapped) was plotted for each compound. […] Mean T50 values in μM±std. dev. were calculated as described above.
To test whether these inhibitors interfere with catalysis, trapping experiments were conducted by carrying out the OGG1 activity assay in the presence of sodium cyanoborohydride. […] These values are slightly higher, but still very close to the calculated IC50 value for this inhibitor (Table 1).
A total of 4 μL of 2.5×OGG1 (125 nM) was mixed with 1 μL of 10× inhibitor. […] Band intensities were quantified using the Image Studio Lite Software. […]

Data set [6] deals with OGG1 (8-oxoguanine DNA glycosylase-1) (Homo sapiens, UniProt O15527 O15527:1-345). Nature of the data set: EMSA; 50 nM OGG1, 25 nM DNA, on ice 5 min; also trapped by NaBH3CN (FIG. 6B); binding abrogated by ATA, unaffected by the five inhibitors. The note with it: tags: His-tag; expressed in bacteria, Ni-NTA purified; label: 5'-TAMRA; 3'-BHQ2 on complement in fluorescence assay. On the technique in general: In EMSA bound probe runs differently from free probe, usually more slowly.
Chain of OGG1 (8-oxoguanine DNA glycosylase-1) (O15527 whole entry, one chain of several): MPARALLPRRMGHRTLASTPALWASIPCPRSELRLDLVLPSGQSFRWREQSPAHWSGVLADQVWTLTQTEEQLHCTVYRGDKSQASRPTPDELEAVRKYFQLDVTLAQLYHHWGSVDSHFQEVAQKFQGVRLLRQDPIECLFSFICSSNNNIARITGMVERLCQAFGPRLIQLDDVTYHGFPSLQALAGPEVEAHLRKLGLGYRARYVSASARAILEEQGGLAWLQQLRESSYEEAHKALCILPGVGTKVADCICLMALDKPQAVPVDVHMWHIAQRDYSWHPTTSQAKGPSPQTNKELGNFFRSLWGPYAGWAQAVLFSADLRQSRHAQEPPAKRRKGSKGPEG
Method: To test whether these inhibitors affected OGG1 binding to an 8-oxo-Gua or AP site, gel shift assays were performed.
All experiments were performed on ice with pre-cooled reagents. […] 5 μL 2× substrate (50 nM) was added, mixed and kept on ice for 5 min. The reaction was quenched with 10 μL ice-cold 30% glycerol and loaded onto a pre-cooled 8% native gel containing 30% glycerol. The gel was run at 4° C. for 1 h (75 V) and bands were visualized by a FluorChem M imager. Band intensities were quantified using the Image Studio Lite Software.

T1 sequence (O15527 whole entry): as the sequence (O15527 whole entry, one chain of several) above

Consider `NC(=O)c1cc2ccccc2cc1O` [3-hydroxy-2-naphthamide], for which the IC50 on OGG1 [1] is greater than 50000 nM.

Turning to `NNC(=O)c1cc2ccccc2cc1O` [3-hydroxy-2-naphthohudrazide], on OGG1 [1], the IC50 came to 75 nM.

For the molecule `Cc1cc(C(=O)NNCc2ccccc2)no1` [ICD, isocarboxazid], the “effect on OGG1-induced cleavage of an AP site (AP lyase activity)” value on OGG1 [2] is recorded as “no effect”. In addition, the “OGG1-mediated excision of 8-oxo-Gua and FapyGua” value on OGG1 [3] is recorded as “little to no decrease”.

Take `NNC(=O)c1ccncc1` [INH, isoniazid]: the “inhibition of OGG1-mediated strand cleavage of 8-oxo-Gua-containing substrate” value at OGG1 [4] was “no inhibition”. On OGG1 [5], the “effect on trapping of OGG1 (Schiff base formation) on 8-oxo-Gua- and AP site-containing substrates” value was “no effect”. Also, the “effect on OGG1-induced cleavage of an AP site (AP lyase activity)” value at OGG1 [2] was “no effect”. The “OGG1-mediated excision of 8-oxo-Gua and FapyGua” value at OGG1 [3] is reported as “little to no decrease”.

B1: 8-oxo-Gua 17-mer duplex (dsDNA)
DNA 1: TCACCGTCGTACGACTC
DNA 2: GAGTCGTACGACGGTGA
modifications: n is 8-oxo-guanine; complement SEQ:2 appears printed 3'-5' [6 (8-oxo-guanine)]
As for B1, in data set [6], the binding result was “binds”.
